Assay results published in paper PMC7710685 (Frontiers in Neuroscience, 2020).
“And” between values parts separate entries of the source, which are not always exact repeats. Equal values may be shown once. Read-outs that look alike come from different tables or passages of the source.

Tests used:
[1] = target: T1, human α1β2γ1 GABAA receptors (Homo sapiens, UniProt P14867+P47870+Q8N1C3); settings: γ1; GABA concentration-response
T1 sequence (Q8N1C3 36-465): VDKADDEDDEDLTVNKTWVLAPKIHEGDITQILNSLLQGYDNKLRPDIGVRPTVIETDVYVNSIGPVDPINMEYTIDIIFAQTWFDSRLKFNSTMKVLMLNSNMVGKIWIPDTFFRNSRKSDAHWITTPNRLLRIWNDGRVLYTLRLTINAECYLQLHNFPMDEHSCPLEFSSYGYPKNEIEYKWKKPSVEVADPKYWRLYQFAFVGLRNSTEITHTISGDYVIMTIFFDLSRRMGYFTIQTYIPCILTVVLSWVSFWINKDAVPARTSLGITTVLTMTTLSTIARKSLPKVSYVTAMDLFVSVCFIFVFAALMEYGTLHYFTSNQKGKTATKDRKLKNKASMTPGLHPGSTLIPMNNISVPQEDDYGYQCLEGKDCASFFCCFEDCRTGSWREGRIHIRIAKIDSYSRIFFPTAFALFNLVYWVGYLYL
T1 sequence (P47870 25-512 limits assumed): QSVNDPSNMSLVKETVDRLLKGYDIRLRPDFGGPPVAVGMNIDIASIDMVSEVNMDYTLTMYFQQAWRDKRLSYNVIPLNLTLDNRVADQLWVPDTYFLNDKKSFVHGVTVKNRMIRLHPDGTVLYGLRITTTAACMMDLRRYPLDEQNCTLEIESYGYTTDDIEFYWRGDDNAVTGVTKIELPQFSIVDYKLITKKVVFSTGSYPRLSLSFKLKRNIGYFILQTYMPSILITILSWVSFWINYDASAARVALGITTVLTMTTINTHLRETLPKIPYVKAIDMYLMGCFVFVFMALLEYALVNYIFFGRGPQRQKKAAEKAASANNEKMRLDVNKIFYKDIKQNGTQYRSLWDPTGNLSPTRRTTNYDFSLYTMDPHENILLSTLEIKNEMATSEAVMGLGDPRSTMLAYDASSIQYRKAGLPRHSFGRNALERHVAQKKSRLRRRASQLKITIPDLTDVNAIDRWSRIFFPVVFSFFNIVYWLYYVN
T1 sequence (P14867 28-456): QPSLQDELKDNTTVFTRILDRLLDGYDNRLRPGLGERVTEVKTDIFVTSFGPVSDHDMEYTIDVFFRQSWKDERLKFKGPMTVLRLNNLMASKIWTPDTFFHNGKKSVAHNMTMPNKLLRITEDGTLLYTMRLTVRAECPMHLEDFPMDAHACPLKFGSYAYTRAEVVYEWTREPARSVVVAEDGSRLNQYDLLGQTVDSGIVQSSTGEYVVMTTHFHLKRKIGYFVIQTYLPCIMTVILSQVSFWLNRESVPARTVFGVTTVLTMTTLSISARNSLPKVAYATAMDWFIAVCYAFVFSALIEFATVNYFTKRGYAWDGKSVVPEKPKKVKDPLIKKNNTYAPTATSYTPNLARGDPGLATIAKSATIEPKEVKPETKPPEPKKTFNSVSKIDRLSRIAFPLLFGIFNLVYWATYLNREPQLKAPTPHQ
Source text: (§1) To ensure homogenous receptor populations and subunit orientation, we used concatenated receptors expressed in X. laevis oocytes. Concatenated pentameric constructs were created using the subunits γx-β2-α1-β2-α1 (where x = 1, 2, or 3).
(§2) The collection and preparation of oocytes were done as previously described ([Ahring et al., 2016]). Briefly, ovarian lobes were removed from anesthetized adult X. laevis following protocol approval by the Animal Ethics Committee of The University of Sydney (AEC No. 2016/970) in accordance with the National Health and Medical Research Council of Australia code for the care and use of animals. […]
(§3) This technique was performed as previously described ([Ahring et al., 2016], [2018]; [Liao et al., 2019]). […] Sampling was taken at 200 Hz and analyzed using pClamp 10.2 suite (Molecular Devices).
(§4) Applications lasted for 30 s and were followed by 2–5 min of washout. EC50 and EC10 were calculated from this curve.
(§5) The final dataset was from a minimum of four experiments and a minimum of two different X. laevis donors. Raw traces were analyzed using pClamp 10.2. […] Peak current amplitude was quantified by measuring maximum inward current for each response. […] The Emax response and EC50 values were calculated by using non-linear regression to fit the data to the Hill equation in a monophasic model with three variables (top, bottom, EC50) using GraphPad Prism 8. […]

[2] = target: T2, human α1β2γ2 GABAA receptors (Homo sapiens, UniProt P14867+P18507+P47870); test: GABA concentration-response, concatenated α1β2γ2 receptors in oocytes; type: cell-based; design: expressed in transfected cells; host or cells: Xenopus laevis oocytes injected with cRNA of the concatenated construct; settings: γ2
T2 sequence (P18507 40-475, one chain of several): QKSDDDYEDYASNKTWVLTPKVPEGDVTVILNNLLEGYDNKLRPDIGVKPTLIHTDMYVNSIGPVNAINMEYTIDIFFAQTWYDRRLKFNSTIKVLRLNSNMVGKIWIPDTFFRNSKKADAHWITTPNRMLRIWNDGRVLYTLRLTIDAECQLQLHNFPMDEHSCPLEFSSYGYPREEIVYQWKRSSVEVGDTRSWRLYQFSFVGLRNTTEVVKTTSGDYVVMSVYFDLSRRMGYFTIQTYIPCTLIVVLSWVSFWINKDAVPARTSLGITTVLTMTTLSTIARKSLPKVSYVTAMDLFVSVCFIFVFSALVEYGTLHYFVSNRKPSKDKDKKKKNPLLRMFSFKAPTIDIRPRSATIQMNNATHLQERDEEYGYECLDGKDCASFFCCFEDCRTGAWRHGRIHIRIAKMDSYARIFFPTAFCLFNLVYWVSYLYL
Source text: as §1, §2, §3, §4, §5

α2β2γ3 receptor [3] = test: Literature: efficacy and potency of zaleplon at α2β2γ3 receptor; type: cell-based; settings: literature α2β2γ3 EC50 vs this paper's α1β2γ3 EC50
[4] = target: T1, human α1β2γ1 GABAA receptors; settings: γ1 (α1β2γ1); for Modulation at 10 μM: 10 μM co-applied with GABA EC10, percentage potentiation of GABA EC10; for EC50: co-applied with GABA EC10; for Log(EC50): logarithm of EC50, mean ± SD; for Emax (%): percent of current through GABA EC10, Hill fit, 0.1 nM-10 μM
Source text: (§6) To ensure homogenous receptor populations and subunit orientation, we used concatenated receptors expressed in X. laevis oocytes. Concatenated pentameric constructs were created using the subunits γx-β2-α1-β2-α1 (where x = 1, 2, or 3). […] Briefly, natural restriction sites BamHI, HindIII, and KpnI restriction sites in the γ1, 2, 3, β2, or α1 subunits were removed through silent mutations using site-directed mutagenesis. […] Inserted linker lengths are as follows γx-13a-β2-27a-α1-18a-β2-27a-α1.
(§7) The collection and preparation of oocytes were done as previously described ([Ahring et al., 2016]). […] Oocytes were prepared by slicing lobes into small pieces and defolliculated through collagenase A treatment. Stage V and VI oocytes were injected with around 50 nL of 0.5 ng/nL RNA for each concatenated construct or α1/β2 subunits in a 1:1 ratio and incubated for 3–4 days at 18°C in modified Barth’s solution (96 mM NaCl, 2.0 mM KCl, 1 mM MgCl2, 1.8 mM CaCl2, 5 mM HEPES, 2.5 mM sodium pyruvate, 0.5 mM theophylline, and 100 μg/mL gentamicin; pH 7.4).
(§8) This technique was performed as previously described ([Ahring et al., 2016], [2018]; [Liao et al., 2019]). Briefly, oocytes sit in a custom-built chamber and continuously perfused with a saline solution, ‘ND96’ (96 mM NaCl, 2 mM KCl, 1 mM MgCl2, 1.8 mM CaCl2, and 10 mM HEPES; pH 7.4). Glass electrode pipettes were filled with 3 M KCl, with resistances ranging from 0.4 to 2 MΩ. Oocytes were clamped to −60 mV using an Axon GeneClamp 500B amplifier (Molecular Devices). Currents were filtered at 20 Hz with a four-pole low pass Bessel filter (Axon GeneClamp 500 B) and digitized by a Digidata 1440A (Molecular Devices). Sampling was taken at 200 Hz and analyzed using pClamp 10.2 suite (Molecular Devices).
(§9) Each recording day, a fresh stock was used to prepare dilutions. The maximal concentration of DMSO in final drug ND96 solutions was <0.1%.
(§10) The drug modulation experiments were done as follows.
(§11) The final dataset was from a minimum of four experiments and a minimum of two different X. laevis donors. Raw traces were analyzed using pClamp 10.2. Episodic traces for each application were overlaid and the baseline was subtracted. Peak current amplitude was quantified by measuring maximum inward current for each response. Peak current amplitudes (I) were fitted to the Hill equation and normalized to the maximal fitted response (Imax). […] The Emax response and EC50 values were calculated by using non-linear regression to fit the data to the Hill equation in a monophasic model with three variables (top, bottom, EC50) using GraphPad Prism 8. Efficacy at infinitely low compound concentration was set to 0, and the slope was constrained to 1. Means are reported ± one SD.

[5] = target: T2, human α1β2γ2 GABAA receptors; settings: γ2 (α1β2γ2); for Modulation at 10 μM: 10 μM co-applied with GABA EC10, percentage potentiation of GABA EC10; for Emax (%): percent of current through GABA EC10, Hill fit
Source text: as §6, §7, §8, §9, §10, §11

[6] = target: T3, human α1β2γ3 GABAA receptors (Homo sapiens, UniProt P14867+P47870+Q99928); settings: for fold greater potency at γ3 receptors compared with γ2: EC50 α1β2γ2 vs α1β2γ3; for Modulation at 10 μM: 10 μM co-applied with GABA EC10, percentage potentiation of GABA EC10; for Emax (%): percent of current through GABA EC10, Hill fit
T3 sequence (Q99928 18-467): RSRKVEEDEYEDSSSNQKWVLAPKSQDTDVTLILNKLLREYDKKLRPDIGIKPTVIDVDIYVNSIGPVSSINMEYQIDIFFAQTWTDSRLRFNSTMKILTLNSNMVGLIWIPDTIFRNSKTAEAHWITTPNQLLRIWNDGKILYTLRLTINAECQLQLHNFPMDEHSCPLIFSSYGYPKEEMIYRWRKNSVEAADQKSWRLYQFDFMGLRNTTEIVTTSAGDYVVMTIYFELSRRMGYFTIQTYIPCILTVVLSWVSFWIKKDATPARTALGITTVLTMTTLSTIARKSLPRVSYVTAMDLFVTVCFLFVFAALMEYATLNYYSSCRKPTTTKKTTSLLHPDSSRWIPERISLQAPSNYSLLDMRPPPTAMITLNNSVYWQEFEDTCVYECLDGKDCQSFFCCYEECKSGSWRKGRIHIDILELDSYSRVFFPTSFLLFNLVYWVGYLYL
T3 sequence (P47870 25-512 limits assumed): T1 sequence (P47870 25-512 limits assumed)
T3 sequence (P14867 28-456): T1 sequence (P14867 28-456)
Source text: as §6, §7, §8, §9, §10, §11

[7] = target: T4, human binary α1β2 GABAA receptors (Homo sapiens, UniProt P14867+P47870); settings: 10 μM co-applied with GABA EC10, percentage potentiation of GABA EC10
T4 sequence (P14867 28-456): T1 sequence (P14867 28-456)
T4 sequence (P47870 25-512 limits assumed): T1 sequence (P47870 25-512 limits assumed)
Procedure: as §7
This technique was performed as previously described ([Ahring et al., 2016], [2018]; [Liao et al., 2019]). Briefly, oocytes sit in a custom-built chamber and continuously perfused with a saline solution, ‘ND96’ (96 mM NaCl, 2 mM KCl, 1 mM MgCl2, 1.8 mM CaCl2, and 10 mM HEPES; pH 7.4). […] Sampling was taken at 200 Hz and analyzed using pClamp 10.2 suite (Molecular Devices). […]
as §5

α2β2γ3 receptor [8] = settings: earlier study, no reference given; cited from earlier work
γ3 GABAA receptors = settings: 1999, cited from earlier work; for binding affinity with γ3 compared with γ2: competitive binding using Ro15-4513, ref Dämgen and Lüddens
[9] = target: T2, human α1β2γ2 GABAA receptors; test: cell-based; settings: for EC50: EC50, γ2 (α1β2γ2), co-applied with GABA EC10; for Emax: γ2 (α1β2γ2), percent of current through GABA EC10, Hill fit
Source text: as §6, §7, §8, §9, §10, §11

[10] = target: T3, human α1β2γ3 GABAA receptors; test: cell-based; settings: for EC50: EC50, γ3 (α1β2γ3), co-applied with GABA EC10
Source text: as §6, §7, §8, §9, §10, §11

α1βγ1 receptors [11] = settings: HEK293 cells expressing α1βγ1, cited from earlier work
α1βγ1 receptors [12] = tested on: α1βγ1 receptors; design: method as in Khom et al., 2006; settings: α1βγ1 in X. laevis oocytes, ref Khom et al., 2006, cited from earlier work
α2βγ1 receptors = tested on: α2βγ1 receptors; design: method as in Wafford et al., 1993; Mckernan et al., 1995; settings: α2βγ1 in X. laevis oocytes, ref Wafford et al., 1993, Mckernan et al., 1995, cited from earlier work
γ1-containing receptors = tested on: γ1-containing receptors; design: method as in Benke et al., 1996; settings: ref Benke et al., 1996; cited from earlier work
[13] = target: recombinant α1β2γ3 GABAA receptors; design: method as in Lippa et al., 2005; settings: ref Lippa et al., 2005, cited from earlier work
α1β2γ3 receptors = tested on: α1β2γ3 receptors; design: method as in Davies et al., 2000; settings: ref Davies et al., 2000; cited from earlier work

Row | Structure (SMILES) | Modulation at 10 μM [4] | EC50 [4] | Log(EC50) [4] | Emax (%) [4] | Modulation at 10 μM [5] | Modulation at 10 μM ([6]; γ3 (α1β2γ3)) | EC50 [9] | Emax [9] | Emax [10] | EC50 [10] | further results
1 | NCCCC(=O)O [GABA, γ-Aminobutyric-acid] | – | – | – | – | – | – | – | – | – | – | Hill slope [1]: 1.22 ± 0.32; Hill slope [2]: 1.19 ± 0.55
2 | CCN(C(C)=O)c1cccc(-c2ccnc3c(C#N)cnn23)c1 [Zaleplon, zaleplon] | 126 ± 3% | No fit | No fit | No fit | 305 ± 59% | 262 ± 53% | 0.203 µM | 307 ± 34% | 277 ± 26% | 0.056 µM | fold less potency at α2β2γ3 than seen on α1β2γ3 (α2β2γ3 receptor [3]): 10 fold; Modulation at 10 μM ([4]; listed as zaleplon): 125%; fold greater potency at γ3 receptors compared with γ2 [6]: ~4 fold; fold greater potency at γ3 receptors compared with γ2 ([6]; listed as zaleplon): four-fold increase in potency; Modulation at 10 μM, (I-Ic)/Ic [7]: 25%; EC50 (α2β2γ3 receptor [8]): ~0.5 µM; binding affinity with γ3 compared with γ2 (γ3 GABAA receptors): eightfold higher affinity
3 | CN1CCN(C(=O)O[C@H]2c3nccnc3C(=O)N2c2ccc(Cl)cn2)CC1 [Eszopiclone, eszopiclone] | 18 ± 19% | No fit | No fit | No fit | 349 ± 70% | 199 ± 26% | 0.301 µM | 356 ± 37% | 207 ± 20% | 0.554 µM | Modulation at 10 μM ([4]; listed as eszopiclone): 20%; fold reduction in Emax when γ3 replaced γ2 ([6]; Emax α1β2γ2 vs α1β2γ3): 1.5 fold
4 | CCCN(CCC)C(=O)Cc1c(-c2ccc(Cl)cc2)nc2ccc(Cl)cn12 [Alpidem, alpidem] | 40% | No fit | No fit | No fit | 542 ± 176% | 126 ± 16% | 0.5 µM and 0.502 µM | – | – | – | Emax (%) [5]: 512 ± 80%; Emax (%) ([5]; listed as alpidem): 475–550%; EC50 ([6]; γ3 (α1β2γ3), co-applied with GABA EC10): No fit; Log(EC50) ([6]; γ3 (α1β2γ3), logarithm of EC50, mean ± SD): No fit; Emax (%) ([6]; γ3 (α1β2γ3)): No fit
5 | Cc1ccc(-c2nc3ccc(C)cn3c2CC(=O)N(C)C)cc1 [Zolpidem, zolpidem] | 15 ± 6% | – | – | No fit | 484 ± 124% | 101 ± 37% | – | 475 to 550% | – | – | Modulation at 10 μM ([4]; listed as zolpidem): 15%; Emax (%) [5]: 487 ± 66%; Emax (%) ([6]; γ3 (α1β2γ3)): No fit; binding to the classical γ3 receptor benzodiazepine site (γ3 GABAA receptors; competition with flunitrazepam or Ro-154513, ref Herb et al., 1992, Lüddens et al., 1994, Tögel et al., Hadingham et al., 1995, Sieghart, Dämgen and Lüddens): no binding; EC50 (α1βγ1 receptors [11]; ref Esmaeili et al., 2009): ~0.2 µM; potentiation (α1βγ1 receptors [11]; ref Puia et al., 1991): 50–75%; maximum efficacy (α1βγ1 receptors [12]): ≤ 20%; maximum efficacy (α1βγ1 receptors [12]; listed as zolpidem): below 20%; maximum efficacy (α2βγ1 receptors): ≤ 20%; maximum efficacy (α2βγ1 receptors; listed as zolpidem): below 20%; binding (γ1-containing receptors): no binding
6 | CN1C(=O)CN=C(c2ccccc2)c2cc(Cl)ccc21 [Diazepam, diazepam] | 43 ± 6% | – | – | No fit | 272 ± 46% | 156 ± 35% | – | 284 ± 23% | 168 ± 24% | – | Modulation at 10 μM ([4]; listed as diazepam): 40%; EC50 ([13]; recombinant α1β2γ3): 1.95 µM; Emax α1β2γ2 vs. α1β2γ3 [13]: no reduction in Emax
7 | CN1CCN(C(=O)OC2c3nccnc3C(=O)N2c2ccc(Cl)cn2)CC1 (stereo not drawn) [zopiclone] | – | – | – | – | – | – | – | – | – | – | binding affinity with γ3 compared with γ2 (γ3 GABAA receptors): marginal reduction in binding affinity; efficacy and potency at α1β2γ3 compared with α1β2γ2 (α1β2γ3 receptors): comparable efficacy and potency
8 | CC(=O)N(C)c1cccc(-c2ccnc3c(C(=O)c4cccs4)cnn23)c1 [Indiplon, indiplon] | 22 ± 7% | No fit | No fit | No fit | 238 ± 31% | 249 ± 14% | 0.01 µM and 0.0131 µM | 231 ± 18% | 263 ± 18% | 0.045 µM and 0.0478 µM | fold greater potency for γ2 vs. γ3 (fold reduction in potency when γ3 replaces γ2) ([6]; EC50 α1β2γ3 vs α1β2γ2): ~4 fold
